For one assay, the target named is T1, IGF-1R (Homo sapiens, UniProt P08069).
T1 construct: purchased Millipore
The experiment in a line: kinase inhibitory activity test (ELISA), IGF-1R. In kind it is biochemical. The conditions noted are these: ATP 5 μM, 1 hour at 37° C. As for the experimental part:
(§1) The enzyme substrate poly (glutamic acid, tyrosine)4:1 (Sigma) was diluted with potassium-free PBS (10 mM sodium phosphate buffer, 150 mM NaCl, pH 7.2-7.4) to 20 μg/mL, plate coated with 125 μL/well, reacted for 12-16 hours at 37° C. After the liquid in the wells was discarded, the plates were washed three times with 200 μL/well of T-PBS (PBS containing 0.1% Tween-20), and each time for 5 minutes, and then dried for 1-2 hours in an oven at 37° C. 50 μL of ATP solution diluted with reaction buffer (50 mM HEPES pH 7.4, 50 mM MgCl2, 5 mM MnCl2, 0.2 mM Na3VO4, 1 mM DTT) was added into each well and the final concentration was 5 μM. The compounds were diluted with 1% DMSO to suitable concentrations and were added at 10 μL/well. Then different types of tyrosine kinase proteins (including EGFR^wt, EGFR^T790M/L858R and IGF-1R, purchased from Millipore) diluted with 40 μL of reaction buffer were added. The above reaction system was reacted for 1 hour at 37° C. shaking table (100 rpm). Control wells with no enzyme and control wells with DMSO solvent were set in each experiment. After the reaction was completed, the plates were washed three times with T-PBS. The anti-phosphotyrosine primary antibody PY99 (Santa Cruz) was added at 100 μL/well and the antibody was diluted with T-PBS containing BSA 5 mg/mL by 1:1000. The mixture was reacted for 0.5 h at 37° C. shaking table, the plates were washed three times with T-PBS. The secondary antibody which was horseradish peroxidase-labeled goat anti-mouse IgG was added at 100 μL/well (the antibody was diluted with T-PBS containing BSA 5 mg/mL by 1:2000). The mixture was reacted for 0.5 h at 37° C. shaking table, the plates were washed three times with T-PBS. 2 l/mL of OPD coloring solution was added at 100 μL/well (diluted with 0.1 M citric acid-sodium citrate buffer (pH=5.4) containing 0.03% H2O2) and dark reacted for 1 to 10 minutes at 25° C. 2 M H2SO4 was added at 50 μL/well to terminate the reaction. Reading was carried out with an adjustable wavelength microplate enzyme-labeled instrument SPECTRA MAX 190 at 490 nm wavelength.
(§2) The IC50 value was calculated by the four-parameter fitting of the suppression curve.
On the technique in general: In an ELISA, binding on a coated surface is turned into a signal by an enzyme label.

For a further assay, the target named is T2, EGFR^T790M/L858R (Homo sapiens, UniProt P00533, L858R/T790M).
T2 construct: purchased Millipore
The experiment in a line: kinase inhibitory activity test (ELISA), EGFR^T790M/L858R. In kind it is biochemical. The following applies: for IC50: ELISA, ATP 5 μM, 1 hour at 37° C.; for kinase inhibitory activity (in words): summary of Table 1. As for the experimental part:
as §1, with “Then different types of tyrosine kinase proteins (including EGFR^wt, EGFR^T790M/L858R and IGF-1R, purchased from Millipore) diluted with 40 μL of reaction buffer were added.” left out
as §2

The subject of assay [1] is human non-small cell lung cancer NCI-H1975 cell line. Description: SRB proliferation assay, NCI-H1975 cells. In kind it is cell-based. The following applies: read-out: IC50 NCI-H1975. As for the experimental part:
(§3) Cell lines: human epidermal carcinoma A431 cell line and human non-small cell lung cancer NCI-H1975 cell line was purchased from the American Standard Biology Collection Center (ATCC).
Methods: sulforhodamine B (SRB) method, which was as follows: certain number of different tumor cells in logarithmic growth phase were inoculated on 96-well culture plates. After cultured for 24 h to cell adherence, different concentrations of the test compounds of the invention were added. Each concentration was provided with three wells, and a corresponding concentration of DMSO solvent control and a cell-free zeroing well were set. After the cells were treated with the medicine for 72 h, the culture medium was discarded and 100 μL of 10% pre-cooled trichloroacetic acid solution was added to fix the cells. After placed for 1 h at 4° C., it was washed for 5 times with distilled water and dried naturally. Then 100 μL SRB (4 mg/mL) (Sigma) solution was added and stained for 15 min at room temperature. The staining solution was discarded and washed for 5 times with 1% glacial acetic acid and dried. Finally, 150 μL of 10 mM Tris solution (pH 10.5) was added and the OD value was measured at 515 nm with adjustable wavelength microplate enzyme-labeled instrument (VERSAmax™, Molecular Device Corporation, Sunnyvale, Calif., USA). […] Based on the inhibitory effect of the 2-aminopyrimidine compounds on the growth of these cells, the half maximal inhibitory concentration (IC50) values were calculated, as shown in Table 2.
(In general: The SRB assay estimates cell density from bound dye.)

Assay [2] has as its system human epidermal carcinoma A431 cell line. Description: SRB proliferation assay, A431 cells. The conditions noted are these: read-out: IC50 A431. The format is cell-based. As for the experimental part: as §3
Methods: sulforhodamine B (SRB) method, which was as follows: certain number of different tumor cells in logarithmic growth phase were inoculated on 96-well culture plates. After cultured for 24 h to cell adherence, different concentrations of the test compounds of the invention were added. Each concentration was provided with three wells, and a corresponding concentration of DMSO solvent control and a cell-free zeroing well were set. After the cells were treated with the medicine for 72 h, the culture medium was discarded and 100 μL of 10% pre-cooled trichloroacetic acid solution was added to fix the cells. After placed for 1 h at 4° C., it was washed for 5 times with distilled water and dried naturally. Then 100 μL SRB (4 mg/mL) (Sigma) solution was added and stained for 15 min at room temperature. The staining solution was discarded and washed for 5 times with 1% glacial acetic acid and dried. Finally, 150 μL of 10 mM Tris solution (pH 10.5) was added and the OD value was measured at 515 nm with adjustable wavelength microplate enzyme-labeled instrument (VERSAmax™, Molecular Device Corporation, Sunnyvale, Calif., USA).

The target in the next assay is T3, EGFR^wt (Homo sapiens, UniProt P00533).
T3 construct: purchased Millipore
The experiment in a line: kinase inhibitory activity test (ELISA), EGFR^WT. In kind it is biochemical. The conditions noted are these: ATP 5 μM, 1 hour at 37° C. As for the experimental part:
as §1, with “Then different types of tyrosine kinase proteins (including EGFR^wt, EGFR^T790M/L858R and IGF-1R, purchased from Millipore) diluted with 40 μL of reaction buffer were added.” left out
as §2

Read-outs that look alike come from different tables or passages of the source.

In general, IC50 refers to the concentration needed to halve the response being measured.

T2 sequence (P00533 25-1210 T790M/L858R): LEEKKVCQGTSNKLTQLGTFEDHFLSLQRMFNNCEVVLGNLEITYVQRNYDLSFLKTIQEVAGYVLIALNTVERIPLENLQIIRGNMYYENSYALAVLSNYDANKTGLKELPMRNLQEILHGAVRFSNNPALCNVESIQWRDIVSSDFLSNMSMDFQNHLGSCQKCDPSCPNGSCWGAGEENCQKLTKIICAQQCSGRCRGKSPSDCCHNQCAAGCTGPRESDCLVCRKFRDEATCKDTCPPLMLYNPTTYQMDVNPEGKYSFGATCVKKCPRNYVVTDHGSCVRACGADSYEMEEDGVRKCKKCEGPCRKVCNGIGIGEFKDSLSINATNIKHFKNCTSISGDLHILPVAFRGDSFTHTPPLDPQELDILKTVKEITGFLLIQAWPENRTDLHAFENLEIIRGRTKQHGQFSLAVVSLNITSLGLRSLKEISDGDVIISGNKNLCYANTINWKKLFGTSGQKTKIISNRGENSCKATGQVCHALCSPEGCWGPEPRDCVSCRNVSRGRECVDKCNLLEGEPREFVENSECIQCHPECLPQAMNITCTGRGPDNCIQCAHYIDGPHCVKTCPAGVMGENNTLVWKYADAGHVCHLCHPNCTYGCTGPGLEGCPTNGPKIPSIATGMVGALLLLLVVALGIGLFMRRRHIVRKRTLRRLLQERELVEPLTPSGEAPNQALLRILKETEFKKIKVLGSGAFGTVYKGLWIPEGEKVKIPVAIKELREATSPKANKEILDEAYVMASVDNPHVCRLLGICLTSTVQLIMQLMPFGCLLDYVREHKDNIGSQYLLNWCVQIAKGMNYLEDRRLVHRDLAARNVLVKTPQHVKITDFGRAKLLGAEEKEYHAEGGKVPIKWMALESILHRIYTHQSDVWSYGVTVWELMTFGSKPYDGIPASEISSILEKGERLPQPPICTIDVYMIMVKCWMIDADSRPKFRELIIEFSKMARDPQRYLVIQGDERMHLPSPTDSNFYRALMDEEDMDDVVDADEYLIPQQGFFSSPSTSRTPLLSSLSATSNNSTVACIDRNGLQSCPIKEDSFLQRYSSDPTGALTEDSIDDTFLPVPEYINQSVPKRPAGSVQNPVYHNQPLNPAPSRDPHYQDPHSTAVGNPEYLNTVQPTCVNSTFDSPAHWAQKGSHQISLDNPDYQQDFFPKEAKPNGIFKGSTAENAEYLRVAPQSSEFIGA
T3 sequence (P00533 25-1210): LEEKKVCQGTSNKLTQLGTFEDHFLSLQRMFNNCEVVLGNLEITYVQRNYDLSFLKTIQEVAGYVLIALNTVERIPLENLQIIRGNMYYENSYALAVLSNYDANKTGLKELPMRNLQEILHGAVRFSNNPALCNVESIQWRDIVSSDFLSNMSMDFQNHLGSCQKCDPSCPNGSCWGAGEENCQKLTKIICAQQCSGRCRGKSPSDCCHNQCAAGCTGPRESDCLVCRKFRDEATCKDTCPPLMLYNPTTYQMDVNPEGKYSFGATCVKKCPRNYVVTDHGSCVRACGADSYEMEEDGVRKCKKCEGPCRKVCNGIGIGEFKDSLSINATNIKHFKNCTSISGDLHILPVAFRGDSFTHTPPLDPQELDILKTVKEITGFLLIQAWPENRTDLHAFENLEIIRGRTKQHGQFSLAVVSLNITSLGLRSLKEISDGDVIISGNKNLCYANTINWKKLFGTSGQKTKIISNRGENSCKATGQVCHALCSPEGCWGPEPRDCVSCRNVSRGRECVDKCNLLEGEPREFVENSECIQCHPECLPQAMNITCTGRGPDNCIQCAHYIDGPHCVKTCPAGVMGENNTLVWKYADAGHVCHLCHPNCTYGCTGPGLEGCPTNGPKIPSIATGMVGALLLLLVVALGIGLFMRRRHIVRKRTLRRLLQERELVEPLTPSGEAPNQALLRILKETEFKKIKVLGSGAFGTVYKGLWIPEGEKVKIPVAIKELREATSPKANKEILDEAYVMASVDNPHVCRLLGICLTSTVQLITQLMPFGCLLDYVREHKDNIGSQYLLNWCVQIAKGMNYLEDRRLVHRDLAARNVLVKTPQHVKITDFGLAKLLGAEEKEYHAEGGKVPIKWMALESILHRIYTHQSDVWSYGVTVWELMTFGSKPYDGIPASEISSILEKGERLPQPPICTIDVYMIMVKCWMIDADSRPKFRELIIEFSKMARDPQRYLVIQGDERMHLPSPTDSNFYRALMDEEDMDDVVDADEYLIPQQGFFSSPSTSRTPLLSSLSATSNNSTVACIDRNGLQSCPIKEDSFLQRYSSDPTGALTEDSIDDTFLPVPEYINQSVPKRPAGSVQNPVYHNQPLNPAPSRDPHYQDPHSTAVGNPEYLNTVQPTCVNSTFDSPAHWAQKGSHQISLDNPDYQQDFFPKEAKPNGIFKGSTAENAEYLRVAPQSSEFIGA
T1 sequence (P08069 31-1367): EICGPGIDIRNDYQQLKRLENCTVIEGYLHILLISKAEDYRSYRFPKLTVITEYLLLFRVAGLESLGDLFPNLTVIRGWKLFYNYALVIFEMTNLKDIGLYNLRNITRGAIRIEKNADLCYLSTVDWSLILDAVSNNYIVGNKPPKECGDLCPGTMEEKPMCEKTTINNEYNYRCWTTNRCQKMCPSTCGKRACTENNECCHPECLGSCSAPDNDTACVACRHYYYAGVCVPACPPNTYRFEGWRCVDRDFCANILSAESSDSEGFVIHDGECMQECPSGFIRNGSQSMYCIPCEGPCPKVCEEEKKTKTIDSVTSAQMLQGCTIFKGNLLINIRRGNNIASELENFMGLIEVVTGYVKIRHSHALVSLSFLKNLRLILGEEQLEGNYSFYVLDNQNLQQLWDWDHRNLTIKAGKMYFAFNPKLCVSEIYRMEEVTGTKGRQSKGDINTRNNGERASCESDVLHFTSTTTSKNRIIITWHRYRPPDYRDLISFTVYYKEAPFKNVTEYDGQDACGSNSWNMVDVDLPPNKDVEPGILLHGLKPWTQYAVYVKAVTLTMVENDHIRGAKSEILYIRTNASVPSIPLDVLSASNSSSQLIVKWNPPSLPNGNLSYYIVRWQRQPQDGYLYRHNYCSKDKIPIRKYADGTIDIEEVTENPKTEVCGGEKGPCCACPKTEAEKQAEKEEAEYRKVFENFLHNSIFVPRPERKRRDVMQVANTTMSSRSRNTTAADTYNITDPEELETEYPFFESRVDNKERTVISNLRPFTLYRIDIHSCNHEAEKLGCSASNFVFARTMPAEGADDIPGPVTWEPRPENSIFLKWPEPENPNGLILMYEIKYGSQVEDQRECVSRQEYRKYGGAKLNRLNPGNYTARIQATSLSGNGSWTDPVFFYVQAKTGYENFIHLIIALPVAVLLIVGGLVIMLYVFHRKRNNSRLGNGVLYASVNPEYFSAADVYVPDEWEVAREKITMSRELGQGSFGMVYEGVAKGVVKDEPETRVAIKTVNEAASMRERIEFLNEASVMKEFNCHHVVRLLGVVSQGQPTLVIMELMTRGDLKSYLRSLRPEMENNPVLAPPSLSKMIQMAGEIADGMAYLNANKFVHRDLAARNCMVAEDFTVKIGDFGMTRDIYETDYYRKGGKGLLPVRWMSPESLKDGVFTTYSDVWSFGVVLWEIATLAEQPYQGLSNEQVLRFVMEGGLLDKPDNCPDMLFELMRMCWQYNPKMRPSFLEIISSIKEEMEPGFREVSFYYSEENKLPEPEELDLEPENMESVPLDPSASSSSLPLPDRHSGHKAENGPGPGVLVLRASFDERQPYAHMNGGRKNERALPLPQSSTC

In the case of `C=CC(=O)Nc1cc(Nc2nccc(-c3cn(C)c4ccccc34)n2)c(OC)cc1N(C)CCN(C)C` [AZD9291, reference compound], on IGF-1R, the IC50 was over 1000 nM.

With `COc1ccc(NC(=O)/C=C/CN(C)C)cc1Nc1ncc(Cl)c(Nc2ccc3ccccc3c2)n1` [CCB118563, (E)-N-((3-((5-chloro-4-((naphthalen-2-yl)amino))pyrimidin-2-yl)amino)-4-methoxyphenyl)-4-(dimethylamino)-2-butenamide], the IC50 at EGFR^T790M/L858R was found to be 18.2 nM; in assay [1] (NCI-H1975, 72 h) it was 306 nM; in assay [2] (A-431, 72 h), 1130 nM; on IGF-1R, 14.7 nM; on EGFR^wt, 260 nM.

Consider `COc1ccc(NC(=O)/C=C/CN2CCCCC2)cc1Nc1ncc(Cl)c(Nc2ccc3ccccc3c2)n1` [CCB120024, (E)-N-((3-((5-chloro-4-((naphthalen-2-yl)amino))pyrimidin-2-yl)amino)-4-methoxyphenyl)-4-(piperidin-1-yl)-2-butenamide], for which the IC50 was determined as 1.9 nM at EGFR^T790M/L858R; 319 nM in assay [1] (NCI-H1975, SRB, 72 h); 6930 nM in assay [2] (A-431, SRB, 72 h); 35.4 nM against IGF-1R; 318 nM at EGFR^wt. Also, the “kinase inhibitory activity (in words)” value at EGFR^T790M/L858R is “potent”.

As to `COc1ccc(NC(=O)/C=C/CN2CCOCC2)cc1Nc1ncc(Cl)c(Nc2ccc3ccccc3c2)n1` [CCB120025, (E)-N-((3-((5-chloro-4-((naphthalen-2-yl)amino))pyrimidin-2-yl)amino)-4-methoxyphenyl)-4-(morpholin-1-yl)-2-butenamide], the IC50 on EGFR^T790M/L858R was determined as 11.9 nM; in assay [1] (NCI-H1975, SRB, 72 h) it was 895 nM; against IGF-1R, 132 nM; on EGFR^wt it was 567 nM.

Turning to `C=CC(=O)Nc1ccc(OC)c(Nc2ncc(Cl)c(Nc3ccc4ccccc4c3)n2)c1` [CCB120027, N-((3-((5-chloro-4-((naphthalen-2-yl)amino))pyrimidin-2-yl)amino)-4-methoxyphenyl)acrylamide], the IC50 at EGFR^T790M/L858R was 2.2 nM; in assay [1] (NCI-H1975, SRB, 72 h), 403 nM; in assay [2] (A-431, SRB, 72 h) it was over 10000 nM; against IGF-1R it was 263 nM; on EGFR^wt, 172 nM. The “kinase inhibitory activity (in words)” value on EGFR^T790M/L858R was “potent”.

For `COc1ccc(NC(=O)/C=C/CN2CCN(C(C)=O)CC2)cc1Nc1ncc(Cl)c(Nc2ccc3ccccc3c2)n1` [CCB120029, (E)-N-((3-((5-chloro-4-((naphthalen-2-yl)amino))pyrimidin-2-yl)amino)-4-methoxyphenyl)-4-(4-acetylpiperazin-1-yl)-2-butenamide], the IC50 against EGFR^T790M/L858R stood at 19.1 nM; in assay [1] (NCI-H1975, SRB, 72 h), 1050 nM; on IGF-1R, 99.4 nM; against EGFR^wt it was 695 nM.

Regarding `C=CC(=O)Nc1cc(CN(C)CCN(C)C)cc(Nc2ncc(Cl)c(Nc3ccc4ccccc4c3)n2)c1` [CCB120069, N-((3-((5-chloro-4-((naphthalen-2-yl)amino))pyrimidin-2-yl)amino)-5-((N-methyl-N-dimethylaminoethyl)methylamine)phenyl)acrylamide], the IC50 at EGFR^T790M/L858R stood at 3.9 nM; in assay [1] (NCI-H1975, SRB, 72 h) it was 147 nM; in assay [2] (A-431, SRB, 72 h), 535 nM; at IGF-1R, 9 nM; at EGFR^wt, 132 nM. Besides, the “kinase inhibitory activity (in words)” value on EGFR^T790M/L858R is given as “potent”.

`C=CC(=O)Nc1cc(CN(C)C)cc(Nc2ncc(Cl)c(Nc3ccc4ccccc4c3)n2)c1` [CCB120081, N-((3-((5-chloro-4-((naphthalen-2-yl)amino))pyrimidin-2-yl)amino)-5-(dimethylaminomethyl)phenyl)acrylamide]: the IC50 against EGFR^T790M/L858R amounted to 5.1 nM; in assay [1] (NCI-H1975, SRB, 72 h), 16 nM; in assay [2] (A-431, SRB, 72 h), 37 nM; at IGF-1R, 85.8 nM; against EGFR^wt it was 170 nM.

Consider `C=CC(=O)Nc1cc(CN2CCN(C)CC2)cc(Nc2ncc(Cl)c(Nc3ccc4ccccc4c3)n2)c1` [CCB120103, N-((3-((5-chloro-4-((naphthalene-2-yl)amino))pyrimidine-2-yl)amino)-5-((4-methylpiperazine-1-yl)methyl)phenyl)acrylamide], for which the IC50 is 3.1 nM at EGFR^T790M/L858R; 131 nM in assay [1] (NCI-H1975, SRB, 72 h); 1020 nM in assay [2] (A-431, SRB, 72 h); 73.3 nM against IGF-1R; 102 nM on EGFR^wt.

As to `C=CC(=O)Nc1cc(Nc2ncc(Cl)c(Nc3ccc4ccccc4c3)n2)c(OC)cc1N(C)CCNC` [CCB4580030, N-((5-((5-chloro-4-(naphthalene-2-ylamino)pyrimidine-2-yl)amino)-4-methoxy-2-(methyl(2-methylamino)ethyl)amino)phenyl)acrylamide], the results for the 50% inhibitory concentration (IC50) against EGFR^T790M/L858R, at IGF-1R and on EGFR^wt were 2.2 nM, 7.8 nM and 3.1 nM, respectively.

Take `C=CC(=O)Nc1cccc(Nc2nc(Nc3ccc(N4CCN(C(C)=O)CC4)cc3OC)ncc2C(F)(F)F)c1` [CO1686, reference compound]: the IC50 in assay [1] (NCI-H1975, SRB, 72 h) is 215 nM; in assay [2] (A-431, SRB, 72 h) it was 972 nM; against IGF-1R, 1320 nM.

For the origin of these results see patent US10059694B2, “2-aminopyrimidine compound and pharmaceutical composition and use thereof” (Shanghai Institute of Materia Medica, Chinese Academy of …, priority 2014, dated 2018).
